Laboratory results as given in the kinase profiling compilation of Christmann-Franck et al. (2016).

Experiments:
Assay in all cases: split-luciferase competition binding
AKT1 (human) = AKT1 (human) (UniProt P31749); conditions: compound 10.0 µM
AKT2 (human) = AKT2 (human) (UniProt P31751); conditions: compound 10.0 µM
AKT3 (human) = AKT3 (human) (UniProt Q9Y243); conditions: compound 10.0 µM
AURKA (human) = AURKA (human) (UniProt O14965); conditions: compound 10.0 µM
AURKB (human) = AURKB (human) (UniProt Q96GD4); conditions: compound 10.0 µM
AURKB (human), sequence (Q96GD4 whole entry, looked up): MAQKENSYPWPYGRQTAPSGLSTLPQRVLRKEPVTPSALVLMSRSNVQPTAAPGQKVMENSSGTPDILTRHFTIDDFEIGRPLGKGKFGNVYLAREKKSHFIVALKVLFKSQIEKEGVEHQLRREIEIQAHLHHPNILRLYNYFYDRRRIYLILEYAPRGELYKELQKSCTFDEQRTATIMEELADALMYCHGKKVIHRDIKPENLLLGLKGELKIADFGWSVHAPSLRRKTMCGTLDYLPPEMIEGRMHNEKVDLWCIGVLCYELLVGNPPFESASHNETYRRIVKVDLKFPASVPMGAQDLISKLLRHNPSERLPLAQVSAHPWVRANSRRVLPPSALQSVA

AURKC (human) = AURKC (human) (UniProt Q9UQB9); conditions: compound 10.0 µM
DMPK (human) = DMPK (human) (UniProt Q09013); conditions: compound 10.0 µM
DMPK (human), sequence (Q09013 whole entry, looked up): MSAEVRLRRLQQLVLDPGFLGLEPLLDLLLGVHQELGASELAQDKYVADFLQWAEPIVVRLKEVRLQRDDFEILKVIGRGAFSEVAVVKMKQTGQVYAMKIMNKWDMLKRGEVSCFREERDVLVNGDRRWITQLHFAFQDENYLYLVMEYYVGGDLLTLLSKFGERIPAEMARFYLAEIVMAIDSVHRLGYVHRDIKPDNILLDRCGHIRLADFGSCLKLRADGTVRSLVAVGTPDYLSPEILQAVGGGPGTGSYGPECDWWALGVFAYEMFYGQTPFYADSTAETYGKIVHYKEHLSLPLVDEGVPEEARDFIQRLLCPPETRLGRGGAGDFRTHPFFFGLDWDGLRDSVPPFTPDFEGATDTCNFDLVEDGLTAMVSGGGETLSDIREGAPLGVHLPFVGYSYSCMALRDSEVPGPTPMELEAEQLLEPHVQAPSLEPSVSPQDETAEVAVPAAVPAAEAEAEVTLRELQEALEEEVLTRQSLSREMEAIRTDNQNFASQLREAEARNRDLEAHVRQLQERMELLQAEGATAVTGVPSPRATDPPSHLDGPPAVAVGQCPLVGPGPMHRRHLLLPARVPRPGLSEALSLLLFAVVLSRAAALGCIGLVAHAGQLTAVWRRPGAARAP

PDPK1 (human) = PDPK1 (human) (UniProt O15530); conditions: compound 10.0 µM
PKN1 (human) = PKN1 (human) (UniProt Q16512); conditions: compound 10.0 µM
PRKACA (mouse) = conditions: compound 10.0 µM; accession and sequence are those of the human protein
PRKACB (human) = PRKACB (human) (UniProt P22694); conditions: compound 10.0 µM
PRKCD (human) = PRKCD (human) (UniProt Q05655); conditions: compound 10.0 µM
PRKCE (human) = PRKCE (human) (UniProt Q02156); conditions: compound 10.0 µM
PRKCG (human) = PRKCG (human) (UniProt P05129); conditions: compound 10.0 µM
PRKCH (human) = PRKCH (human) (UniProt P24723); conditions: compound 10.0 µM
PRKCI (human) = PRKCI (human) (UniProt P41743); conditions: compound 10.0 µM
PRKCI (human), sequence (P41743 whole entry, looked up): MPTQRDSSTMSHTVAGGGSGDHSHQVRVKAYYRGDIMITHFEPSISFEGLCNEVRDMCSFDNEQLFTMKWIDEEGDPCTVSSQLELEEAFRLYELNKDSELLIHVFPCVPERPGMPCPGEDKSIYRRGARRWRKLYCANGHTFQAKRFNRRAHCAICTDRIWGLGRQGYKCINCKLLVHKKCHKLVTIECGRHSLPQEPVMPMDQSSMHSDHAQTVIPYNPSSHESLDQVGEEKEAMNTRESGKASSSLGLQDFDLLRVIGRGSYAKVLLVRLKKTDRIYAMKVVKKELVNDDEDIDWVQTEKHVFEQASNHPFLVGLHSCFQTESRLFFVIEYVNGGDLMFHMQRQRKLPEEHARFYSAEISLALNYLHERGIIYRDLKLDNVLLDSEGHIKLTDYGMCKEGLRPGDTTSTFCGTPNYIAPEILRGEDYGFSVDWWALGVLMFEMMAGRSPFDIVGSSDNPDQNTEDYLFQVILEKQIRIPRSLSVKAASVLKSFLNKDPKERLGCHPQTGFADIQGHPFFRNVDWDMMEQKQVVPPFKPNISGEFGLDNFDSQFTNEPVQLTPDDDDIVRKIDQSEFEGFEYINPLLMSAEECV

PRKCQ (human) = PRKCQ (human) (UniProt Q04759); conditions: compound 10.0 µM
PRKX (human) = PRKX (human) (UniProt P51817); conditions: compound 10.0 µM
RPS6KA1 KD1 (human) = RPS6KA1 KD1 (human) (UniProt Q15418); conditions: compound 10.0 µM
RPS6KA2 KD1 (human) = RPS6KA2 KD1 (human) (UniProt Q15349); conditions: compound 10.0 µM
RPS6KA3 KD1 (human) = RPS6KA3 KD1 (human) (UniProt P51812); conditions: compound 10.0 µM
RPS6KA4 KD1 (human) = RPS6KA4 KD1 (human) (UniProt O75676); conditions: compound 10.0 µM
RPS6KA5 KD1 (human) = RPS6KA5 KD1 (human) (UniProt O75582); conditions: compound 10.0 µM
RPS6KA5 KD1 (human), sequence (O75582 whole entry, looked up): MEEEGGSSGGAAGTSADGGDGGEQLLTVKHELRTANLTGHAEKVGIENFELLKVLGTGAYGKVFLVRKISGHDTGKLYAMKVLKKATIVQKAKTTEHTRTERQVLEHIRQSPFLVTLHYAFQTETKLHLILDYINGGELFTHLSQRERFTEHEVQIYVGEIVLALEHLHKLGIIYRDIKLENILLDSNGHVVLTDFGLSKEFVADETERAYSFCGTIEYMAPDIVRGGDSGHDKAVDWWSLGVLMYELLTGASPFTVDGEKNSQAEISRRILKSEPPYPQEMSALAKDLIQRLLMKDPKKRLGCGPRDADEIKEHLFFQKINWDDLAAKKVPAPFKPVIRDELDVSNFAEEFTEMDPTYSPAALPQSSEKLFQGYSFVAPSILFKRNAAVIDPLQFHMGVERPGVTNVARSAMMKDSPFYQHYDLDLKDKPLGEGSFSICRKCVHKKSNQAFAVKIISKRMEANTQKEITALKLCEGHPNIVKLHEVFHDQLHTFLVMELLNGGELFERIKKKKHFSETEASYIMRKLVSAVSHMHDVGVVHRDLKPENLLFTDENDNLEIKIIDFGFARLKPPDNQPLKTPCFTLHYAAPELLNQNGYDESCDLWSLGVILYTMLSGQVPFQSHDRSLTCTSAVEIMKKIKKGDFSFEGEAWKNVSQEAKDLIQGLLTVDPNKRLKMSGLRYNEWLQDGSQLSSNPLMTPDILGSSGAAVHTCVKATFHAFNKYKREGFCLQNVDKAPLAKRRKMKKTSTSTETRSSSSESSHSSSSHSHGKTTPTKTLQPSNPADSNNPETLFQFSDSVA

RPS6KA6 KD1 (human) = RPS6KA6 KD1 (human) (UniProt Q9UK32); conditions: compound 10.0 µM
RPS6KA6 KD1 (human), sequence (Q9UK32 whole entry, looked up): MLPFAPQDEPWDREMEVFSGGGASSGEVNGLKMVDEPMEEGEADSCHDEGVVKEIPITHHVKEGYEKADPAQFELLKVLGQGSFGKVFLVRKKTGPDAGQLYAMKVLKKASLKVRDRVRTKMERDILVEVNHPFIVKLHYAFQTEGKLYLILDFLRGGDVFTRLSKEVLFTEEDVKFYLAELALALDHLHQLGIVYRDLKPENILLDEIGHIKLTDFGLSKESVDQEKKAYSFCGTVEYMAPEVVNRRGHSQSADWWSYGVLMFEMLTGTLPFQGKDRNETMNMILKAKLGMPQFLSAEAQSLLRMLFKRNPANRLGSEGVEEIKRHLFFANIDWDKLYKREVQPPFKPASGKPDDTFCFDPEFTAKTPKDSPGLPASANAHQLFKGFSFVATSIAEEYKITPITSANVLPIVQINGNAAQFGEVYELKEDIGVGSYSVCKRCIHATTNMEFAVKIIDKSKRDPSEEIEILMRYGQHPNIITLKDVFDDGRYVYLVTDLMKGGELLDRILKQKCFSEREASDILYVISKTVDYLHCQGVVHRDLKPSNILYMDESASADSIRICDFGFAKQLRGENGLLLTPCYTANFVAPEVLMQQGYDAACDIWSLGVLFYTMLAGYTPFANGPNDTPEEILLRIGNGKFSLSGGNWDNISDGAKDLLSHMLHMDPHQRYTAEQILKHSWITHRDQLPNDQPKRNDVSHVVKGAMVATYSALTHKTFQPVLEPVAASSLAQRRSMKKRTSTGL

SGK2 (human) = SGK2 (human) (UniProt Q9HBY8); conditions: compound 10.0 µM
SGK2 (human), sequence (Q9HBY8 whole entry, looked up): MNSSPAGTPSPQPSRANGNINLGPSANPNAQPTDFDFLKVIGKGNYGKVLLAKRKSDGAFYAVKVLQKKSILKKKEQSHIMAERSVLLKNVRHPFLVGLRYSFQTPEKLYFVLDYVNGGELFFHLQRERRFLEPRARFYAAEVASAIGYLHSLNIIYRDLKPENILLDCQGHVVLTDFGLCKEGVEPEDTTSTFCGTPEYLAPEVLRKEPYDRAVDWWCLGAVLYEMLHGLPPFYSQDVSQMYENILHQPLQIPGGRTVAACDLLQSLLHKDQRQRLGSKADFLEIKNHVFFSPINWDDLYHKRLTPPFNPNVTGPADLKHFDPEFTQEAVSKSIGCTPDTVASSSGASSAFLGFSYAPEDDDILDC

SGK3 (human) = SGK3 (human) (UniProt Q96BR1); conditions: compound 10.0 µM
STK32B (human) = STK32B (human) (UniProt Q9NY57); conditions: compound 10.0 µM
STK32B (human), sequence (Q9NY57 whole entry, looked up): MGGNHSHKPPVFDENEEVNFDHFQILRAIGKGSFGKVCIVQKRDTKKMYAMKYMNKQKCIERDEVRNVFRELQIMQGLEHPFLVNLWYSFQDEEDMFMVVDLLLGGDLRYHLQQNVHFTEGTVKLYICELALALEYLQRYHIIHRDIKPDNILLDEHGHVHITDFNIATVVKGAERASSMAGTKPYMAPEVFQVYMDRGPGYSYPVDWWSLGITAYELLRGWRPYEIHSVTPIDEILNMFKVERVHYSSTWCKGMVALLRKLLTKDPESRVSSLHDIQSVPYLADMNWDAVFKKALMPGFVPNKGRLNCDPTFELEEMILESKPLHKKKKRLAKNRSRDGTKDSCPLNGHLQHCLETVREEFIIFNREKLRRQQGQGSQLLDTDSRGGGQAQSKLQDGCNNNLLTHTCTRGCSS

AKT1 (human), sequence (P31749 whole entry, looked up): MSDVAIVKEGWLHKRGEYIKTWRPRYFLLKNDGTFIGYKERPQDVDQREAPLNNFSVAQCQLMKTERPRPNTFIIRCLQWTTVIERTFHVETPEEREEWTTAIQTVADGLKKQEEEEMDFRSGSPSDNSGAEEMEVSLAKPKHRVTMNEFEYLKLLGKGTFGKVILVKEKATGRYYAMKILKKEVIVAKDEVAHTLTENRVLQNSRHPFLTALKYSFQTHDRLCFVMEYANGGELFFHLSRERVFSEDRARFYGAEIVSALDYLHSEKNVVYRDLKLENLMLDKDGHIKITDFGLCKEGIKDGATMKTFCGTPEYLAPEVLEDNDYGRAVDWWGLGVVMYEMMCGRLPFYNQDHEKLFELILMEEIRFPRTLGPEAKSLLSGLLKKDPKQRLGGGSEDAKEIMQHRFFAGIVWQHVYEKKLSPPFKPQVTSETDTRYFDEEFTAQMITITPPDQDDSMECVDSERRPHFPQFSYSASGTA
AKT2 (human), sequence (P31751 whole entry, looked up): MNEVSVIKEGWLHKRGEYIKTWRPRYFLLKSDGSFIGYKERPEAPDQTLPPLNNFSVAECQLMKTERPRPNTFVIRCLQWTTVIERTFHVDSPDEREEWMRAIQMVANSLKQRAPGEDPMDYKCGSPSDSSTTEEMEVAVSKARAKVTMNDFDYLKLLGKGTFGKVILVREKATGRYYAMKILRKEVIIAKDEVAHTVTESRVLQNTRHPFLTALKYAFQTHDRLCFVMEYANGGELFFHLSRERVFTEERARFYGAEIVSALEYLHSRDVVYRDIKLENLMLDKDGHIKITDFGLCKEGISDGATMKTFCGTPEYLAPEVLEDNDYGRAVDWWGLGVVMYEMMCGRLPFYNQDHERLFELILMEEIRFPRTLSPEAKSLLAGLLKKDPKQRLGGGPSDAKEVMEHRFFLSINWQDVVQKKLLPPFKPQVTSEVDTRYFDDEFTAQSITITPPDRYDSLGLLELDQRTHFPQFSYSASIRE

Row | Compound | inhibition (AKT1 (human)) | inhibition (AKT2 (human)) | inhibition (AKT3 (human)) | inhibition (AURKA (human)) | inhibition (AURKB (human)) | inhibition (AURKC (human)) | inhibition (DMPK (human)) | inhibition (PDPK1 (human)) | inhibition (PKN1 (human)) | inhibition (PRKACA (mouse)) | inhibition (PRKACB (human)) | inhibition (PRKCD (human)) | inhibition (PRKCE (human)) | inhibition (PRKCG (human)) | inhibition (PRKCH (human)) | inhibition (PRKCI (human)) | inhibition (PRKCQ (human)) | inhibition (PRKX (human)) | inhibition (RPS6KA1 KD1 (human)) | inhibition (RPS6KA2 KD1 (human)) | other results
1 | N#C/C(=C\c1ccc(O)c(O)c1)C(N)=S | 0% | 0% | 0% | 1% | 0% | 0% | 0% | 0% | 5% | 4% | 0% | 0% | 0% | 0% | 0% | 0% | 0% | 0% | 0% | 0% | inhibition (RPS6KA3 KD1 (human)): 0%; inhibition (RPS6KA4 KD1 (human)): 0%; inhibition (RPS6KA5 KD1 (human)): 0%; inhibition (RPS6KA6 KD1 (human)): 0%; inhibition (SGK2 (human)): 0%; inhibition (SGK3 (human)): 0%; inhibition (STK32B (human)): 1%
2 | Cc1[nH]c(/C=C2\C(=O)Nc3ccc(S(=O)(=O)Cc4c(Cl)cccc4Cl)cc32)c(C)c1C(=O)N1CCC[C@@H]1CN1CCCC1 | 8% | 0% | 0% | 19% | 33% | 39% | 9% | 7% | 0% | 1% | 13% | 0% | 7% | 12% | 12% | 7% | 0% | 7% | 32% | 14% | inhibition (RPS6KA3 KD1 (human)): 13%; inhibition (RPS6KA4 KD1 (human)): 12%; inhibition (RPS6KA5 KD1 (human)): 22%; inhibition (RPS6KA6 KD1 (human)): 25%; inhibition (SGK2 (human)): 2%; inhibition (SGK3 (human)): 0%; inhibition (STK32B (human)): 23%
3 | O=C1NC(=O)c2c1c1c3ccccc3[nH]c1c1[nH]c3ccccc3c21 | 22% | 0% | 0% | 1% | 50% | 35% | 30% | 22% | 0% | 27% | 20% | 17% | 25% | 7% | 65% | 0% | 45% | 62% | 51% | 42% | inhibition (RPS6KA3 KD1 (human)): 23%; inhibition (RPS6KA4 KD1 (human)): 55%; inhibition (RPS6KA5 KD1 (human)): 47%; inhibition (RPS6KA6 KD1 (human)): 36%; inhibition (SGK2 (human)): 70%; inhibition (SGK3 (human)): 81%; inhibition (STK32B (human)): 9%
4 | C/C(O)=C(\C#N)C(=O)Nc1cc(Br)ccc1Br | 0% | 0% | 0% | 0% | 0% | 0% | 0% | 0% | 0% | 7% | 0% | 0% | 0% | 0% | 0% | 0% | 0% | 0% | 0% | 0% | inhibition (RPS6KA3 KD1 (human)): 0%; inhibition (RPS6KA4 KD1 (human)): 0%; inhibition (RPS6KA5 KD1 (human)): 0%; inhibition (RPS6KA6 KD1 (human)): 0%; inhibition (SGK2 (human)): 0%; inhibition (SGK3 (human)): 0%; inhibition (STK32B (human)): 0%
5 | CC(C)(C)n1nc(-c2cccc3ccccc23)c2c(N)ncnc21 | 18% | 0% | 0% | 0% | 12% | 17% | 27% | 0% | 0% | 32% | 21% | 0% | 14% | 5% | 8% | 0% | 31% | 9% | 24% | 10% | inhibition (RPS6KA3 KD1 (human)): 30%; inhibition (RPS6KA4 KD1 (human)): 0%; inhibition (RPS6KA5 KD1 (human)): 0%; inhibition (RPS6KA6 KD1 (human)): 4%; inhibition (SGK2 (human)): 0%; inhibition (SGK3 (human)): 0%; inhibition (STK32B (human)): 66%
6 | CC(C)[C@H](CO)Nc1nc(Nc2ccc(C(=O)O)c(Cl)c2)c2ncn(C(C)C)c2n1 | 0% | 0% | 0% | 3% | 15% | 7% | 0% | 0% | 0% | 21% | 3% | 5% | 2% | 0% | 2% | 0% | 11% | 3% | 81% | 79% | inhibition (RPS6KA3 KD1 (human)): 66%; inhibition (RPS6KA4 KD1 (human)): 44%; inhibition (RPS6KA5 KD1 (human)): 0%; inhibition (RPS6KA6 KD1 (human)): 50%; inhibition (SGK2 (human)): 0%; inhibition (SGK3 (human)): 3%; inhibition (STK32B (human)): 9%

The next lines start with results.

Row | inhibition (AKT1 (human)) | inhibition (AKT2 (human)) | inhibition (AKT3 (human)) | inhibition (AURKA (human)) | inhibition (AURKB (human)) | inhibition (AURKC (human)) | inhibition (DMPK (human)) | inhibition (PDPK1 (human)) | inhibition (PKN1 (human)) | inhibition (PRKACA (mouse)) | inhibition (PRKACB (human)) | inhibition (PRKCD (human)) | inhibition (PRKCE (human)) | inhibition (PRKCG (human)) | inhibition (PRKCH (human)) | inhibition (PRKCI (human)) | inhibition (PRKCQ (human)) | inhibition (PRKX (human)) | inhibition (RPS6KA1 KD1 (human)) | inhibition (RPS6KA2 KD1 (human)) | Compound | other results
7 | 0% | 0% | 0% | 0% | 7% | 14% | 0% | 0% | 0% | 0% | 0% | 0% | 6% | 3% | 0% | 0% | 0% | 0% | 0% | 0% | O=c1cc(N2CCOCC2)oc2c1ccc1ccccc12 | inhibition (RPS6KA3 KD1 (human)): 0%; inhibition (RPS6KA4 KD1 (human)): 0%; inhibition (RPS6KA5 KD1 (human)): 1%; inhibition (RPS6KA6 KD1 (human)): 0%; inhibition (SGK2 (human)): 0%; inhibition (SGK3 (human)): 0%; inhibition (STK32B (human)): 0%
8 | 0% | 0% | 0% | 0% | 27% | 19% | 13% | 2% | 0% | 1% | 0% | 0% | 7% | 9% | 0% | 0% | 2% | 7% | 0% | 0% | COc1cc2ncnc(Nc3ccc(F)c(Cl)c3)c2cc1OCCCN1CCOCC1 | inhibition (RPS6KA3 KD1 (human)): 0%; inhibition (RPS6KA4 KD1 (human)): 0%; inhibition (RPS6KA5 KD1 (human)): 0%; inhibition (RPS6KA6 KD1 (human)): 0%; inhibition (SGK2 (human)): 0%; inhibition (SGK3 (human)): 3%; inhibition (STK32B (human)): 0%
9 | 0% | 0% | 0% | 0% | 8% | 16% | 7% | 0% | 6% | 0% | 0% | 0% | 3% | 0% | 0% | 2% | 4% | 7% | 0% | 7% | CCN(CC)CCCCN1c2ccccc2Oc2ccc(Cl)cc21 | inhibition (RPS6KA3 KD1 (human)): 0%; inhibition (RPS6KA4 KD1 (human)): 0%; inhibition (RPS6KA5 KD1 (human)): 0%; inhibition (RPS6KA6 KD1 (human)): 0%; inhibition (SGK2 (human)): 0%; inhibition (SGK3 (human)): 0%; inhibition (STK32B (human)): 0%
